{"source": "ChEMBL document CHEMBL1201862", "about": "“PubChem BioAssay data set” (2004)", "key": {"[1]": {"target": "T1, Heat shock factor protein 1 (Mus musculus, UniProt P38532)", "T1 sequence (P38532 whole entry)": "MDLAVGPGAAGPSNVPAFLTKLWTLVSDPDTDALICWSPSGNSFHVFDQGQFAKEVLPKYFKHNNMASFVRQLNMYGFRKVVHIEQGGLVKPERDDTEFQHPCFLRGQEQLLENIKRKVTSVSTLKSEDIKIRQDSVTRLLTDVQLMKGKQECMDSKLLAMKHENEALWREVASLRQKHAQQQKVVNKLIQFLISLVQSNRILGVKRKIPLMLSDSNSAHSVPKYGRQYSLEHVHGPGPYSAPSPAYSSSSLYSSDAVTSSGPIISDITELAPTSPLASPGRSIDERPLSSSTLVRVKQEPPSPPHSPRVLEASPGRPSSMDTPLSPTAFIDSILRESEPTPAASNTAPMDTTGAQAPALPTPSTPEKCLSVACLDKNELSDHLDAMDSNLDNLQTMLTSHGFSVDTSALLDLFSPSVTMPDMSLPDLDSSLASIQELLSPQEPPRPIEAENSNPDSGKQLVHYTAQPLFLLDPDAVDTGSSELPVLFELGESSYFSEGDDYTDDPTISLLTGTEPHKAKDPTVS", "test": "decrease of HSF1-responsive luciferase luminescence – cell-based, NIH3T3, dose retest, confirmation (AID 2382);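 note: NIH3T3 fibroblasts with HSF1-driven luciferase reporter stressed by proteasome inhibitor MG132; luminescence from HSF1-driven luciferase expression after 8 hours of MG132 stress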", "assay_type": "functional"}, "[2]": {"target": "T2, Sentrin-specific protease 8 (Homo sapiens, UniProt Q96LD8)", "T2 sequence (Q96LD8 whole entry)": "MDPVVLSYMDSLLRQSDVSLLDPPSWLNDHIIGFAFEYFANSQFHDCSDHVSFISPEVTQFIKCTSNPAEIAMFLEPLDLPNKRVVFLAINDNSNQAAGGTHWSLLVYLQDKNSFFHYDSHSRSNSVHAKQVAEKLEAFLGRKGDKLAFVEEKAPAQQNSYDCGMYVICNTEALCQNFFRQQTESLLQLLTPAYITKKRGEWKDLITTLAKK", "assay_type": "functional"}, "[3]": {"target": "T2, Sentrin-specific protease 8", "assay_type": "functional", "remark": "listed apart in the source"}, "Large T antigen": {"target": "Large T antigen (Simian virus 40, UniProt P03070)", "sequence (P03070 whole entry)": "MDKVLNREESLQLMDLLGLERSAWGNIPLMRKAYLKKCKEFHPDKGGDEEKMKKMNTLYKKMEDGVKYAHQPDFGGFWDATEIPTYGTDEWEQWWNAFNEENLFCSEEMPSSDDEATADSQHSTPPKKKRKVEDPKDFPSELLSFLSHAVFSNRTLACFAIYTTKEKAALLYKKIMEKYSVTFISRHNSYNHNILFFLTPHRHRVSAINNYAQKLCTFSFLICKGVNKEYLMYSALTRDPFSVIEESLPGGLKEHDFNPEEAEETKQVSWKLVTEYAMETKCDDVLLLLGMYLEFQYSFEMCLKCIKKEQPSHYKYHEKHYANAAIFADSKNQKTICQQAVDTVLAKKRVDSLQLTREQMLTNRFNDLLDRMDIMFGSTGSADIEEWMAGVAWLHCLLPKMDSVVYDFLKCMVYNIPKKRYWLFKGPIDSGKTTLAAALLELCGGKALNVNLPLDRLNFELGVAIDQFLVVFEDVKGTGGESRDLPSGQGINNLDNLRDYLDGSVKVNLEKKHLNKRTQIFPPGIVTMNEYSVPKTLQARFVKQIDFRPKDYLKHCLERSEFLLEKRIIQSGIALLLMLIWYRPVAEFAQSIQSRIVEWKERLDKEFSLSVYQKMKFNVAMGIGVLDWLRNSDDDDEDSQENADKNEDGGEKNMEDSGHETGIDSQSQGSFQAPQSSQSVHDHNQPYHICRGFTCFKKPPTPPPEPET", "assay_type": "functional, Betapolyomavirus macacae"}, "[4]": {"target": "T3, Rac GTPase-activating protein 1 (Homo sapiens, UniProt Q9H0H5)", "T3 sequence (Q9H0H5 whole entry)": "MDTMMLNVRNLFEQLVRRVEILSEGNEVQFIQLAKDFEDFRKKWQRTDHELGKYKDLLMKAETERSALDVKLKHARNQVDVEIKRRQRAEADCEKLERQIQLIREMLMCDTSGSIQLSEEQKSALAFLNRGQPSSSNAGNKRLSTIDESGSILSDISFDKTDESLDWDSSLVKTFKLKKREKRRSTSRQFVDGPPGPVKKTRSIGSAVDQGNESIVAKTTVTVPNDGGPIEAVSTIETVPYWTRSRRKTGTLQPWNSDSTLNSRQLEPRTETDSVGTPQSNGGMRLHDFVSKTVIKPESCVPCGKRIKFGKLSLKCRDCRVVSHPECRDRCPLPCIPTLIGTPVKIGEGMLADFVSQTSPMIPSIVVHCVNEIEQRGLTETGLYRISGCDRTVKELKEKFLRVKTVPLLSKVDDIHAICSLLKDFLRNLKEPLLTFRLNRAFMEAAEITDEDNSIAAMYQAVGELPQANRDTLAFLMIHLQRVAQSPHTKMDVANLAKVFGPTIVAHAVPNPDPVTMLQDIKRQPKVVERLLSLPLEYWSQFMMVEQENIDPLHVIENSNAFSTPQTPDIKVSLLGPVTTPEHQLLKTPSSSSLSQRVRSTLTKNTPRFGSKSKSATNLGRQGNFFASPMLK", "test": "blockers of MgcRacGAP-driven Rac1 GTP hydrolysis – biochemical, ADP Hunter fluorescence, primary and confirmatory, confirmation (AID 624330)", "assay_type": "functional"}, "[5]": {"test": "Luminescence Cell-Based Dose Retest to Confirm Inhibitors of Cancer Stem Cells. [Related pubchem assays (depositor defined):AID2717, AID2721]", "assay_type": "functional", "details": "Homo sapiens"}, "INS1": {"tested_on": "INS1", "test": "INS-1E survival protection against cytokine death – cell-based, luminescence, retest, dose response (AID 449756);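 note: cell death triggered by IL-1 beta plus TNF-alpha plus IFN-gamma mixture; protective hits raise ATP signal compared with cytokine alone wells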", "assay_type": "functional", "details": "Rattus norvegicus"}, "[6]": {"test": "viability of PTEN-deleted HCT116 cells – cell-based, HCT116 PTEN knockout, dose response (AID 1047);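 note: HCT116 colon tumor cells with PTEN knocked out; cells exposed to compound for 60 hours before readout; potency for loss of cell viability measured by luminescence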", "assay_type": "functional"}, "[7]": {"test": "viability of HCT116 lacking mutant beta-catenin – cell-based, human colon tumor, dose response (AID 1045);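 note: HCT116 colon tumor cells with beta catenin knocked out; cells exposed to compound for 60 hours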", "assay_type": "functional"}, "[8]": {"target": "T4, Mannose-6-phosphate isomerase (Homo sapiens, UniProt P34949)", "T4 sequence (P34949 whole entry)": "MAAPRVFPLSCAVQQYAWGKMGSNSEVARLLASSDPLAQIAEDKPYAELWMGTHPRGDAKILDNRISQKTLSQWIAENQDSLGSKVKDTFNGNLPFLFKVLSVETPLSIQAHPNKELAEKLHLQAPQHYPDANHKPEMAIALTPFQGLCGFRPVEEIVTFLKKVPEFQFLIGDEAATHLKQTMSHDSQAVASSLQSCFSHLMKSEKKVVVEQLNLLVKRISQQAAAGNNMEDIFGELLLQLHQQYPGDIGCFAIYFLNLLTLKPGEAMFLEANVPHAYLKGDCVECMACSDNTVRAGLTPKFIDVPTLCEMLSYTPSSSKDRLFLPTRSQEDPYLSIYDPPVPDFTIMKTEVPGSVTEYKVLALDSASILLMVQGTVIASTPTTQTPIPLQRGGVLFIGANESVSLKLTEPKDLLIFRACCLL", "test": "MPI inhibition at elevated mannose 6-phosphate – biochemical, fluorescence intensity, high mannose 6-phosphate, primary screen (AID 1220)"}, "[9]": {"target": "T5, Carboxy-terminal domain RNA polymerase II polypeptide A small phosphatase 1 (Homo sapiens, UniProt Q9GZU7)", "T5 sequence (Q9GZU7 whole entry)": "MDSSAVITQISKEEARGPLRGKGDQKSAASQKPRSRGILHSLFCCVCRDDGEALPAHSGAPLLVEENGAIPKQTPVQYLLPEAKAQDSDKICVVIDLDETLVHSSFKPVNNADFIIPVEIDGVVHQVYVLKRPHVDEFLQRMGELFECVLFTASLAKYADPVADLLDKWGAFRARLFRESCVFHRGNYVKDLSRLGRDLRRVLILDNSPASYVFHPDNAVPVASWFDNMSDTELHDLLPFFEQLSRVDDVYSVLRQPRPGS", "test": "CTDSP1 inhibitors, concentration-response, biochemical, absorbance readout, ultra-high-throughput screen actives (AID 540297)", "assay_type": "functional"}, "[10]": {"test": "reduction of Shn3 3'UTR-driven luciferase in osteoblasts – cell-based, Clone20 osteoblasts, firefly luciferase, cherry-picked, dose response (AID 624132)", "assay_type": "functional"}, "[11]": {"test": "loss of viability in HepG2 cells – cell-based, CellTiter-Glo, cherry-picked, cytotoxicity control for Shn3 inhibitor project, dose response (AID 624134)", "assay_type": "functional"}, "[12]": {"test": "luciferase reporter signal suppression in cells – H4 neuroglioma cells, luminescence, dose response (AID 1990)", "assay_type": "functional, cell-based"}, "[13]": {"test": "Luminescence Cell-Based Dose Response HTS to Identify Inhibitors of 5'UTR Stem-Loop Driven Prion Protein mRNA Translation in H4 Neuroglioblastoma Cells. [Related pubchem assays: 1827 (Project Summary), 1813 (Primary HTS)]", "assay_type": "functional"}, "[14]": {"test": "alpha-synuclein stem-loop luciferase translation blockers – H4 neuroglioma cells, luminescence, confirmation (AID 1988)", "assay_type": "functional, cell-based"}, "[15]": {"target": "T6, Microphthalmia-associated transcription factor (Homo sapiens, UniProt O75030)", "T6 sequence (O75030 whole entry)": "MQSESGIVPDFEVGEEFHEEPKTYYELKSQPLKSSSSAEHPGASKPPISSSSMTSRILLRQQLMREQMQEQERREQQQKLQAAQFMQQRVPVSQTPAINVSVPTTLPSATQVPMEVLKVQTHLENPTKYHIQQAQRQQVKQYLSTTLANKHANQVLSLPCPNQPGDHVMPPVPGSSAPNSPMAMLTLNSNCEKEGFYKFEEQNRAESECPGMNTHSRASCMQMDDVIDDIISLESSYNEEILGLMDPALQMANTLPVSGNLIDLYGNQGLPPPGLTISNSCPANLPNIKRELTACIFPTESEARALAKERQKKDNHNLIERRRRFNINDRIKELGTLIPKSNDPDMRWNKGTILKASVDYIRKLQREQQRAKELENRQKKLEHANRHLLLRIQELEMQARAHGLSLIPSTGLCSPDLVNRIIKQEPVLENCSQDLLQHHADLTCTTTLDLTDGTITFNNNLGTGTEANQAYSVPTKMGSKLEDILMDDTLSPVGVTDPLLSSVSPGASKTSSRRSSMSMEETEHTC", "test": "reducers of TRPM1 reporter luminescence, concentration series – cell-based, SK-MEL-5, cherry-picked, set 3, MITF inhibitor project, dose response (AID 493073)", "assay_type": "functional"}, "H9c2": {"tested_on": "H9c2", "test": "cells", "assay_type": "functional, cell-based", "details": "Rattus norvegicus, H9c2, Myocardium"}}, "note": "Calls of active or inactive are those of the source."}
{"smiles": "CN1CCN(CC(=O)n2c3c(c4ccccc42)CCCC3)CC1", "values": [{"measurement": "EC50", "setting": "[1]", "value": "> 195 µM (not active)"}, {"measurement": "IC50", "setting": "[2]", "value": "> 100 µM (inactive)"}, {"measurement": "IC50", "setting": "[3]", "value": "16.6 µM (active)"}]}
{"smiles": "COc1cc(/C=N/NC(=O)CNc2nnc(O)nc2O)ccc1O", "values": [{"measurement": "IC50", "setting": "Large T antigen", "value": "8.93 µM (active)"}, {"measurement": "IC50", "setting": "[4]", "value": "35.9 µM (active)"}]}
{"smiles": "CN(c1ccc(C(=O)N2CCc3ccccc3C2)cc1)S(C)(=O)=O", "values": [{"measurement": "IC50", "setting": "[2]", "value": "90.5 µM (inactive)"}, {"measurement": "IC50", "setting": "[3]", "value": "13.1 µM (active)"}]}
{"smiles": "O=C(N/N=C/c1ccc(O)cc1O)/C(=C/c1ccccc1)CCO", "values": [{"measurement": "IC50", "setting": "Large T antigen", "value": "19.4 µM (active)"}, {"measurement": "AC50", "setting": "[5]", "value": "6.81 µM (active)"}, {"measurement": "AC50", "setting": "INS1", "value": "2.11 µM (active)"}]}
{"smiles": "CC(NC(=O)Nc1cccc([N+](=O)[O-])c1)(C(F)(F)F)C(F)(F)F", "values": [{"measurement": "EC50", "setting": "[6]", "value": "12 µM (active)"}, {"measurement": "EC50", "setting": "[7]", "value": "12.3 µM (active)"}]}
{"smiles": "Cc1cc(N2CCOCC2)nc2ccc(NC(=S)N3CCCCC3C)cc12", "note": "(stereo unspecified)", "values": [{"measurement": "IC50", "setting": "[8]", "value": "> 50 µM (not active)"}]}
{"smiles": "CCS(=O)(=O)N1CCCC(C(=O)N2CCc3ccccc3C2)C1", "note": "(stereo unspecified)", "values": [{"measurement": "IC50", "setting": "[2]", "value": "71.7 µM (inactive)"}, {"measurement": "IC50", "setting": "[3]", "value": "17.7 µM (active)"}]}
{"smiles": "O=C(/C=C/c1ccco1)N1CCN(S(=O)(=O)c2ccccc2)CC1", "values": [{"measurement": "IC50", "setting": "[9]", "value": "4.94 µM (active)"}]}
{"smiles": "CC(=O)N(CCc1ccccc1)c1ccc2c(c1)C1CC2CCN1C(=O)OCc1ccccc1", "note": "(stereo unspecified)", "values": [{"measurement": "AC50", "setting": "[10]", "value": "14.3 µM (active)"}, {"measurement": "AC50", "setting": "[11]", "value": "> 70 µM (inactive)"}]}
{"smiles": "Cc1cc(S(=O)(=O)N2CCN(Cc3ccc4c(c3)OCO4)CC2)cc(C)c1N1CCCC1=O", "values": [{"measurement": "EC50", "setting": "[6]", "value": "45.7 µM (active)"}, {"measurement": "EC50", "setting": "[7]", "value": "36 µM (active)"}]}
{"smiles": "CC(Oc1ccc(F)cc1)C(=O)Nc1nc(-c2ccccn2)cs1", "note": "(stereo unspecified)", "values": [{"measurement": "EC50", "setting": "[12]", "value": "> 120 µM (not active)"}, {"measurement": "EC50", "setting": "[13]", "value": "10.2 µM (active)"}, {"measurement": "EC50", "setting": "[14]", "value": "> 120 µM (not active)"}, {"measurement": "AC50", "setting": "[15]", "value": "9.42 µM (active)"}, {"measurement": "IC50", "setting": "H9c2", "value": "> 79 µM (inactive)"}]}
{"smiles": "Cn1cccc1/C=C1\\CCc2ccccc2C1=O", "values": [{"measurement": "IC50", "setting": "[8]", "value": "> 50 µM (not active)"}]}
{"smiles": "Cc1ccc(C(NC(=O)C2CCCCC2)c2c(O)ccc3ccccc23)cc1", "note": "(stereo unspecified)", "values": [{"measurement": "EC50", "setting": "[6]", "value": "17.4 µM (active)"}, {"measurement": "EC50", "setting": "[7]", "value": "21.5 µM (active)"}]}
{"smiles": "CC(C)(C)OC(=O)NCc1ccc(CNC(=O)c2nc[nH]c2C(=O)NCc2ccc(CNC(=O)OC(C)(C)C)cc2)cc1", "values": [{"measurement": "AC50", "setting": "[10]", "value": "5.89 µM (active)"}, {"measurement": "AC50", "setting": "[11]", "value": "> 70 µM (inactive)"}]}
{"smiles": "O=C(/C=C/c1ccc(Cl)cc1)NC(=S)Nc1ccccc1C(=O)O", "values": [{"measurement": "IC50", "setting": "[9]", "value": "8.66 µM (active)"}]}
